Assay results as given in US20120076776A1, “METHOD FOR TREATING INFLAMATION BY LYMPHOCYTE DEPLETION OR SEQUESTERING” (priority 2010, published 2012).

Tests used:
[1] = test system: immune-related genes in liver tissue; test: QRT-PCR gene transcript expression in liver tissue at necropsy; conditions: FTY720 n=7 vs control n=5
IRI = conditions: various animal models; cited from earlier work
peripheral neutrophils = test: Peripheral neutrophil counts during hemorrhage and reperfusion; assay type: in vivo, Yorkshire (Sus scrofa domestica) swine; conditions: FTY720 0.3 mg/kg; reperfusion period
Method: All functional laboratory assays were performed at 37° C., consistent with recorded normothermic animal temperatures (37.5±0.9° C.). Blood samples were collected at 0, 15, 30, 60, 90, and 120 minutes during the hemorrhage period and at 18, 24, 36, 48, and 72 hours during the survival period. Complete blood count with differentiation was performed with a cell counter (NDvia120 Hematology System, Siemens, Deerfield, Ill.).
Blood samples were collected at 0, 15, 30, 60, 90, and 120 minutes during the hemorrhage period and at 18, 24, 36, 48, and 72 hours during the survival period. Complete blood counts with differentiation were obtained using a cell counter (NDvia120 Hematology System, Siemens, Deerfield, Ill.).

[2] = test system: lung tissue neutrophils (MPO+); test: MPO immunohistochemistry of lung tissue at necropsy; assay type: in vivo, Yorkshire (Sus scrofa domestica) swine; conditions: FTY720 0.3 mg/kg
Method: Immunohistochemical detection of MPO was performed on sections of formalin fixed, paraffin embedded blocks of swine lung. Antigen retrieval was performed using Proteinase K (DAKO, Carpenteria Calif.) for 30 minutes. Polyclonal rabbit, anti-human MPO (DAKO, Carpenteria Calif.) was used at a ready to use dilution and incubated at room temperature for 30 minutes. Envision, anti-rabbit (DAKO, Carpenteria Calif.) was applied as a secondary antibody for 30 minutes at room temperature. The chromogen applied was 3,3′ Diaminobenzidine (DAKO, Carpenteria, Calif.) for 10 minutes. The sections were counterstained with Hematoxylin (DAKO, Carpenteria, Calif.). External negative control was processed identically as with MPO but the primary antibody was substituted with normal rabbit serum. […] Cells with appropriate nuclear morphology and the presence of light to intensely reactive granules were counted; 5 random 40× fields were assessed.
Immunohistochemical detection of MPO was performed on sections of formalin fixed, paraffin embedded blocks of lung tissue. […] Polyclonal rabbit, anti-human MPO (DAKO, Carpenteria Calif.) was used at a ready to use dilution and incubated at room temperature for 30 minutes. […] Cells with appropriate nuclear morphology and the presence of light to intensely reactive granules were counted; 5 random 40× fields were assessed.

[3] = test system: experimental hemorrhagic shock induced by porcine liver injury; test: Liver injury hemorrhagic shock model: survival, blood loss, hemodynamics; assay type: in vivo, Yorkshire (Sus scrofa domestica) swine; conditions: FTY720 0.3 mg/kg 15 min after liver injury
Method: Male and female 3-12 month Yorkshire (Sus scrofa domestica) swine weighing 25-35 kg were acquired from ABI farms (Donsboro, Pa.). Feed was withheld 12 hours before surgery. Prior to surgery, animals were sedated and anesthesia induced with intramuscular ketamine hydrochloride (12-20 mg/kg of weight) and xylazine (2.2 mg/kg of weight) as well as atropine sulfate (0.05 mg/kg of weight) to decrease tracheal secretions. Mask ventilation with Isoflurane (5.0%) was used to facilitate endotracheal intubation. Pigs were ventilated (Ohmeda 7800 series ventilator, Datex, Madison, Wis.) at 12-15 breaths/min and tidal volume 10 mL/kg. Anesthesia was maintained with Isoflurane (1.5-2.5%) in 21-25% O2.
Following adequate anesthesia the right external and internal jugular veins and carotid artery were isolated. A 9Fr dual-lumen, tunneled Hickman catheter was placed in the external jugular vein for drug infusion and blood collection during the survival period. […] Rectal temperature was monitored continuously. […]
All animal groups underwent a standardized liver injury and resuscitation protocol. […] Bleeding was spontaneous and removed continually via suction and quantified by weight. […]
After a total of 2 hours, the pre-hospital phase was completed and hospital arrival was simulated. […] The abdomen was reopened, residual blood suctioned, sponges collected, and blood loss quantified by weight. […]

[4] = test system: central lymphocytes (CD3+); test: CD3 immunohistochemistry of mesenteric lymph node and spleen at necropsy (ACIS); assay type: in vivo, Yorkshire (Sus scrofa domestica) swine; conditions: FTY720 0.3 mg/kg; both mesenteric lymph node and spleen at necropsy
Method: Immunohistochemical detection of CD3 was performed on sections of formalin fixed, paraffin embedded blocks of swine lymph node and spleen. Antigen retrieval was performed using Trilogy (Cell Marque, Rocklin, Calif.) for 30 minutes. Rat, anti-human CD3, monoclonal antibody (AbD Serotec, Raleigh, N.C.) was used at a dilution of 1:50 and incubated overnight at 4 C. Biotinylated goat anti-rat IgG specific polyclonal antibody (BD Biosciences, San Jose, Calif.) was applied as a secondary antibody at a 1:100 dilution for 30 minutes at room temperature. The chromogen applied was 3, 3′ Diaminobenzidine (DAKO, Carpenteria, Calif.) for 10 minutes. The sections were counterstained with Hematoxylin (DAKO, Carpenteria, Calif.). External negative controls were processed identically as CD3 but the primary antibody was substituted with normal rat serum. […] An Automated Cellular Imaging System (ACIS) was used to quantify the CD3 immunohistochemistry staining. By using the ACIS system, CD3 immunohistochemical staining could be specifically quantitated by determining how much brown (positive CD3 immunohistochemical reaction) was in the image compared to the amount of blue (hematoxylin nuclear counterstain).
Tissue slides were deparaffinized using xylene followed by graded baths of ethanol. […] An Automated Cellular Imaging System (ACIS) was used to quantify the CD3 immunohistochemistry staining. […]

renal transplant IRI = conditions: rat, in vivo; cited from earlier work

## CCCCCCCCc1ccc(CCC(N)(CO)CO)cc1 [FTY720]
[1]
  BCL-2 transcript expression in liver vs control: up-regulated
  FAS transcript expression in liver vs control: down regulated
  HSP70 transcript expression in liver vs control: down-regulated
  INOS transcript expression in liver vs control: down-regulated
  NFκB transcript expression in liver vs control: down-regulated
  VCAM transcript expression in liver vs control: down-regulated
IRI
  effect on IRI: ameliorate IRI
Peripheral neutrophils
  peripheral neutrophil response vs control: attenuated
[2]
  lung tissue neutrophils vs control: significantly decreased
[3]
  reperfusion period survival vs control: statistically improved
[3]; 72 hours
  overall survival vs control: improved compared to control although not statistically significant
[4]
  central lymphocyte sequestration (CD3 staining) vs control: significant central lymphocyte sequestration
Renal transplant IRI
  adhesion molecules expression: no change
  intragraft neutrophil infiltration: reduced
  renal function: improved renal function
